Laboratory results as given in patent EP4203925B1, “CANNABINOID COMBINATIONS AND THEIR USE IN THE TREATMENT OF CANCER” (priority 2020, dated 2022).
Several values for one entry are separate records, joined by “and”; a condition that tells them apart may be missing. Equal entries are not always repeated. Entries after “also recorded” stand apart in the source; their conditions may differ. Where two headings read alike, the source gives them in different places.

Tests used:
breast cancer cell lines = assay: MTT cell viability / checkerboard assay, cell line not given; conditions: Homo sapiens, read-out: IC50 values
MDA-MB-231 cells = assay: MTT cell viability assay with Chou-Talalay median-effect / combination index analysis; conditions: for IC50 / IC75 / IC90: Homo sapiens, MDA-MB-231, 48 h; for IC50: read-out: Dm (µM) IC50; for IC75: read-out: Dm (µM) IC75; for IC90: read-out: Dm (µM) IC90
MCF-7 cells = assay: as above; conditions: for IC50 / IC75 / IC90: Homo sapiens; for IC75: read-out: Dm (µM) IC75; for IC90: read-out: Dm (µM) IC90
white blood cells = assay: Toxicity screening in white blood cells (MTT); type: cell-based, human; conditions: B6 (42 µM), C6 (43 µM), 24 hours
Method: MTT solution (5mg/ml, 20 µl) was added to existing media in the wells and the cells were incubated for 3 hours at 37 °C. After the 3 hours, the plate was centrifuged at 1000 x g for 10 minutes, the spent media removed and the formazan crystals solubilised in 100 µl DMSO. The plate was then shaken for 1 minute and the absorbance read at 550nm.
Blood samples were obtained from healthy volunteers (n=3, 16 ml/person) in ethylenediaminetetraacetic acid (EDTA) vacutainers. The samples were centrifuged at 500 x g for 10 minutes, the plasma (top layer) removed and the buffy coat collected. The buffy coat was then centrifuged at 2000 x g for 10 minutes to remove residual plasma while retaining the buffy coat. Lysis buffer (0.16M NH4Cl, 0.01 M KHCO3, 6 mM EDTA; pH 7.3) was added to the buffy coat in a 9:1 ratio (lysis buffer:buffy coat) and the mixture vortexed for 10 seconds, followed by a 10 minute incubation at room temperature. The sample was then centrifuged at 2000 x g for 10 minutes and the pellet retained (containing white blood cells). […] White blood cells were stained with trypan blue and counted using a haemocytometer. […]
The potential toxicity induced by the selected treatments (B6 and C6) were evaluated in two ways: 1) screening in the normal breast cells, MCF-10A and 2) determining the cytotoxicity to white blood cells isolated from human volunteers (Figure 14).

[1] = MCF7, 48 h, read-out: Dm (µM) IC50
[2] = MCF7, read-out: Required concentration of cannabinoids: Individual

Structure (SMILES)	IC50 (breast cancer cell lines) [µM]	IC50 (MDA-MB-231 cells) [µM]	IC75 (MDA-MB-231 cells) [µM]	IC90 (MDA-MB-231 cells) [µM]	IC50 (MCF-7 cells; [1]) [µM]	IC75 (MCF-7 cells; MCF7, 48 h) [µM]	IC90 (MCF-7 cells; MCF7, 48 h) [µM]	IC50 (MCF-7 cells; [2]) [µM]	Dm (µM) IC75 (MDA-MB-231 cells) [µM]	Dm (µM) IC75 (MCF-7 cells) [µM]	Required concentration of cannabinoids: Individual (MCF-7 cells)	growth inhibition / cytotoxicity (white blood cells)
CCCCCc1cc(O)c2c(c1)OC(C)(C)c1ccc(C)cc1-2 [CBN, cannabinol]	25	22.5	25.7	29.3	23.4	26.6	30.2	23.4				
C=C(C)[C@@H]1CCC(C)=C[C@H]1c1c(O)cc(CCCCC)cc1O [CBD, cannabidiol]	19	14.7	26.4	47.4	20.6	30.2	44.4	20.6				
CCCCCc1cc(O)c(C/C=C(\C)CCC=C(C)C)c(O)c1 [CBG, cannabigerol]	30	24.9	28.1	31.8	26.9	33	40.5	26.9				
CCCCCc1cc(O)c2c(c1)OC(C)(C)[C@@H]1CCC(C)=C[C@@H]21 [THC, Δ^9-tetrahydrocannabinol]	32	30		49	32.2		57.7	32.6	38.33	43.11	39.23 µM (2×) and 47.24 µM (2×)	
CC[C@@]1(O)C(=O)OCc2c1cc1n(c2=O)Cc2cc3ccccc3nc2-1 [camptothecin]												lack of growth inhibition; also recorded: limited cytotoxicity
